Columns and labels:
Format in all cases: functional
OCI-Ly10 [1] = assay: Growth inhibition of human OCILY10 cells at 0.17 uM incubated for 3 days in presence of 0.17 uM acalabrutinib relative to control; conditions: OCI-Ly10, 72 h, time 3 day, read-out: GI
OCI-Ly10 [2] = assay: Growth inhibition of human OCILY10 cells at 10 uM incubated for 3 days in presence of 0.33 uM acalabrutinib relative to control; conditions: OCI-Ly10, 72 h, time 3 day, read-out: GI
SUD4 [3] = assay: Growth inhibition of human SU-DHL-4 cells at 0.17 uM incubated for 3 days in presence of 0.033 uM acalabrutinib relative to control; conditions: SU-DHL-4, 72 h, time 3 day, read-out: GI
SUD4 [4] = assay: Growth inhibition of human SU-DHL-4 cells at 10 uM incubated for 3 days in presence of 0.33 uM acalabrutinib relative to control; conditions: SU-DHL-4, 72 h, time 3 day, read-out: GI
SUD4 [5] = assay: Growth inhibition of human SU-DHL-4 cells at 10 uM incubated for 3 days in presence of 0.003 uM acalabrutinib relative to control; conditions: SU-DHL-4, 72 h, time 3 day, read-out: GI
SUD4 [6] = assay: Growth inhibition of human SU-DHL-4 cells at 3.3 uM incubated for 3 days in presence of 0.17 uM acalabrutinib relative to control; conditions: SU-DHL-4, 72 h, time 3 day, read-out: GI
OCI-Ly10 [7] = assay: Growth inhibition of human OCILY10 cells at 3.3 uM incubated for 3 days in presence of 0.017 uM acalabrutinib relative to control; conditions: OCI-Ly10, 72 h, time 3 day, read-out: GI
SUD4 [8] = assay: Growth inhibition of human SU-DHL-4 cells at 1.7 uM incubated for 3 days in presence of 0.033 uM acalabrutinib relative to control; conditions: SU-DHL-4, 72 h, time 3 day, read-out: GI
OCI-Ly10 [9] = assay: Growth inhibition of human OCILY10 cells at 0.33 uM incubated for 3 days in presence of 0.33 uM acalabrutinib relative to control; conditions: OCI-Ly10, 72 h, time 3 day, read-out: GI
OCI-Ly10 [10] = assay: Growth inhibition of human OCILY10 cells at 10 uM incubated for 3 days in presence of 0.003 uM acalabrutinib relative to control; conditions: OCI-Ly10, 72 h, time 3 day, read-out: GI
SUD4 [11] = assay: Growth inhibition of human SU-DHL-4 cells at 0.33 uM incubated for 3 days in presence of 0.17 uM acalabrutinib relative to control; conditions: SU-DHL-4, 72 h, time 3 day, read-out: GI
OCI-Ly10 [12] = assay: Growth inhibition of human OCILY10 cells at 0.17 uM incubated for 3 days in presence of 0.33 uM acalabrutinib relative to control; conditions: OCI-Ly10, 72 h, time 3 day, read-out: GI
SUD4 [13] = assay: Growth inhibition of human SU-DHL-4 cells at 10 uM incubated for 3 days in presence of 0.033 uM acalabrutinib relative to control; conditions: SU-DHL-4, 72 h, time 3 day, read-out: GI
SUD4 [14] = assay: Growth inhibition of human SU-DHL-4 cells at 1.7 uM incubated for 3 days in presence of 0.003 uM acalabrutinib relative to control; conditions: SU-DHL-4, 72 h, time 3 day, read-out: GI
SUD4 [15] = assay: Growth inhibition of human SU-DHL-4 cells at 1.7 uM incubated for 3 days in presence of 0.33 uM acalabrutinib relative to control; conditions: SU-DHL-4, 72 h, time 3 day, read-out: GI
SUD4 [16] = assay: Growth inhibition of human SU-DHL-4 cells at 0.17 uM incubated for 3 days in presence of 0.33 uM acalabrutinib relative to control; conditions: SU-DHL-4, 72 h, time 3 day, read-out: GI
OCI-Ly10 [17] = assay: Growth inhibition of human OCILY10 cells at 1.7 uM incubated for 3 days in presence of 0.17 uM acalabrutinib relative to control; conditions: OCI-Ly10, 72 h, time 3 day, read-out: GI
SUD4 [18] = assay: Growth inhibition of human SU-DHL-4 cells at 0.33 uM incubated for 3 days in presence of 0.33 uM acalabrutinib relative to control; conditions: SU-DHL-4, 72 h, time 3 day, read-out: GI
OCI-Ly10 [19] = assay: Growth inhibition of human OCILY10 cells at 0.33 uM incubated for 3 days in presence of 0.033 uM acalabrutinib relative to control; conditions: OCI-Ly10, 72 h, time 3 day, read-out: GI
SUD4 [20] = assay: Growth inhibition of human SU-DHL-4 cells at 10 uM incubated for 3 days in presence of 0.17 uM acalabrutinib relative to control; conditions: SU-DHL-4, 72 h, time 3 day, read-out: GI
OCI-Ly10 [21] = assay: Growth inhibition of human OCILY10 cells at 0.17 uM incubated for 3 days in presence of 0.033 uM acalabrutinib relative to control; conditions: OCI-Ly10, 72 h, time 3 day, read-out: GI
OCI-Ly10 [22] = assay: Growth inhibition of human OCILY10 cells at 10 uM incubated for 3 days in presence of 0.017 uM acalabrutinib relative to control; conditions: OCI-Ly10, 72 h, time 3 day, read-out: GI
OCI-Ly10 [23] = assay: Growth inhibition of human OCILY10 cells at 1.7 uM incubated for 3 days in presence of 0.33 uM acalabrutinib relative to control; conditions: OCI-Ly10, 72 h, time 3 day, read-out: GI
OCI-Ly10 [24] = assay: Growth inhibition of human OCILY10 cells at 3.3 uM incubated for 3 days in presence of 0.003 uM acalabrutinib relative to control; conditions: OCI-Ly10, 72 h, time 3 day, read-out: GI
SUD4 [25] = assay: Growth inhibition of human SU-DHL-4 cells at 0.17 uM incubated for 3 days in presence of 0.17 uM acalabrutinib relative to control; conditions: SU-DHL-4, 72 h, time 3 day, read-out: GI
SUD4 [26] = assay: Growth inhibition of human SU-DHL-4 cells at 0.17 uM incubated for 3 days in presence of 0.003 uM acalabrutinib relative to control; conditions: SU-DHL-4, 72 h, time 3 day, read-out: GI
SUD4 [27] = assay: Growth inhibition of human SU-DHL-4 cells at 3.3 uM incubated for 3 days in presence of 0.33 uM acalabrutinib relative to control; conditions: SU-DHL-4, 72 h, time 3 day, read-out: GI
SUD4 [28] = assay: Growth inhibition of human SU-DHL-4 cells at 1.7 uM incubated for 3 days in presence of 0.17 uM acalabrutinib relative to control; conditions: SU-DHL-4, 72 h, time 3 day, read-out: GI
OCI-Ly10 [29] = assay: Growth inhibition of human OCILY10 cells at 1.7 uM incubated for 3 days in presence of 0.003 uM acalabrutinib relative to control; conditions: OCI-Ly10, 72 h, time 3 day, read-out: GI
SUD4 [30] = assay: Growth inhibition of human SU-DHL-4 cells at 10 uM incubated for 3 days in presence of 0.017 uM acalabrutinib relative to control; conditions: SU-DHL-4, 72 h, time 3 day, read-out: GI
OCI-Ly10 [31] = assay: Growth inhibition of human OCILY10 cells at 1.7 uM incubated for 3 days in presence of 0.017 uM acalabrutinib relative to control; conditions: OCI-Ly10, 72 h, time 3 day, read-out: GI
SUD4 [32] = assay: Growth inhibition of human SU-DHL-4 cells at 3.3 uM incubated for 3 days in presence of 0.033 uM acalabrutinib relative to control; conditions: SU-DHL-4, 72 h, time 3 day, read-out: GI
SUD4 [33] = assay: Growth inhibition of human SU-DHL-4 cells at 3.3 uM incubated for 3 days in presence of 0.003 uM acalabrutinib relative to control; conditions: SU-DHL-4, 72 h, time 3 day, read-out: GI
SUD4 [34] = assay: Growth inhibition of human SU-DHL-4 cells at 3.3 uM incubated for 3 days in presence of 0.017 uM acalabrutinib relative to control; conditions: SU-DHL-4, 72 h, time 3 day, read-out: GI
SUD4 [35] = assay: Growth inhibition of human SU-DHL-4 cells at 0.33 uM incubated for 3 days in presence of 0.033 uM acalabrutinib relative to control; conditions: SU-DHL-4, 72 h, time 3 day, read-out: GI
SUD4 [36] = assay: Growth inhibition of human SU-DHL-4 cells at 0.17 uM incubated for 3 days in presence of 0.017 uM acalabrutinib relative to control; conditions: SU-DHL-4, 72 h, time 3 day, read-out: GI
OCI-Ly10 [37] = assay: Growth inhibition of human OCILY10 cells at 0.33 uM incubated for 3 days in presence of 0.17 uM acalabrutinib relative to control; conditions: OCI-Ly10, 72 h, time 3 day, read-out: GI
OCI-Ly10 [38] = assay: Growth inhibition of human OCILY10 cells at 3.3 uM incubated for 3 days in presence of 0.17 uM acalabrutinib relative to control; conditions: OCI-Ly10, 72 h, time 3 day, read-out: GI
OCI-Ly10 [39] = assay: Growth inhibition of human OCILY10 cells at 3.3 uM incubated for 3 days in presence of 0.33 uM acalabrutinib relative to control; conditions: OCI-Ly10, 72 h, time 3 day, read-out: GI
OCI-Ly10 [40] = assay: Growth inhibition of human OCILY10 cells at 10 uM incubated for 3 days in presence of 0.17 uM acalabrutinib relative to control; conditions: OCI-Ly10, 72 h, time 3 day, read-out: GI
OCI-Ly10 [41] = assay: Growth inhibition of human OCILY10 cells at 1.7 uM incubated for 3 days in presence of 0.033 uM acalabrutinib relative to control; conditions: OCI-Ly10, 72 h, time 3 day, read-out: GI

With `Cc1ncc(-c2nc3c(NC(C)C)nc(Nc4cnn(C5CC6(C5)CN(C)C6)c4)nc3cc2F)cn1` the inhibition of growth at 0.17 µM (OCI-Ly10 [1]) was 172%, the inhibition of growth at 10 µM (OCI-Ly10 [2]) was 198% and the inhibition of growth at 0.17 µM (SUD4 [3]) was 2%. The inhibition of growth at 10 µM (SUD4 [4]) was 10%, the inhibition of growth at 10 µM (SUD4 [5]) was 7% and the inhibition of growth at 3.3 µM (SUD4 [6]) was 4%. For the same compound, the inhibition of growth at 3.3 µM (OCI-Ly10 [7]) was 196%, the inhibition of growth at 1.7 µM (SUD4 [8]) was 3% and the inhibition of growth at 0.33 µM (OCI-Ly10 [9]) was 183%. For the same compound, the inhibition of growth at 10 µM (OCI-Ly10 [10]) was 196%, the inhibition of growth at 0.33 µM (SUD4 [11]) was 4% and the inhibition of growth at 0.17 µM (OCI-Ly10 [12]) was 173%. For the same compound, the inhibition of growth at 10 µM (SUD4 [13]) was 6%, the inhibition of growth at 1.7 µM (SUD4 [14]) was 3% and the inhibition of growth at 1.7 µM (SUD4 [15]) was 6%. It also gave an inhibition of growth at 0.17 µM (SUD4 [16]) of 6%, an inhibition of growth at 1.7 µM (OCI-Ly10 [17]) of 197% and an inhibition of growth at 0.33 µM (SUD4 [18]) of 6%. It also gave an inhibition of growth at 0.33 µM (OCI-Ly10 [19]) of 177%, an inhibition of growth at 10 µM (SUD4 [20]) of 7% and an inhibition of growth at 0.17 µM (OCI-Ly10 [21]) of 137%. It also gave an inhibition of growth at 10 µM (OCI-Ly10 [22]) of 197%, an inhibition of growth at 1.7 µM (OCI-Ly10 [23]) of 195% and an inhibition of growth at 3.3 µM (OCI-Ly10 [24]) of 189%. It also gave an inhibition of growth at 0.17 µM (SUD4 [25]) of 3%, an inhibition of growth at 0.17 µM (SUD4 [26]) of 3% and an inhibition of growth at 3.3 µM (SUD4 [27]) of 7%. The inhibition of growth at 1.7 µM (SUD4 [28]) was 3%, the inhibition of growth at 1.7 µM (OCI-Ly10 [29]) was 170% and the inhibition of growth at 10 µM (SUD4 [30]) was 7%. The inhibition of growth at 1.7 µM (OCI-Ly10 [31]) was 196%, the inhibition of growth at 3.3 µM (SUD4 [32]) was 4% and the inhibition of growth at 3.3 µM (SUD4 [33]) was 4%. It also gave an inhibition of growth at 3.3 µM (SUD4 [34]) of 4%, an inhibition of growth at 0.33 µM (SUD4 [35]) of 3% and an inhibition of growth at 0.17 µM (SUD4 [36]) of 3%. For the same compound, the inhibition of growth at 0.33 µM (OCI-Ly10 [37]) was 185%, the inhibition of growth at 3.3 µM (OCI-Ly10 [38]) was 196% and the inhibition of growth at 3.3 µM (OCI-Ly10 [39]) was 195%. For the same compound, the inhibition of growth at 10 µM (OCI-Ly10 [40]) was 199% and the inhibition of growth at 1.7 µM (OCI-Ly10 [41]) was 196%.

From ChEMBL document CHEMBL5244269, “Improving metabolic stability and removing aldehyde oxidase liability in a 5-azaquinazoline series of IRAK4 inhibitors” (Bioorg Med Chem, 2020)
